EC50 data for 46 compounds are collected here from US10034886B2, “GLP-1 receptor modulators” (Celgene International II SÀRL, priority 2014, dated 2018).

Like-named read-outs stand apart in the source and are kept apart here.

For the assay, the target named is T1, GLP-1R (Homo sapiens, UniProt P43220).
T1 construct: host or cells: GLP-1R CRE-bla CHO-K1 cells
Nature of the assay: EC20 GLP-1(9-36) PAM cAMP assay: dose response of compound in the presence of fixed concentration of GLP-1(9-36). The assay is classed as cell-based. The settings on record: GLP-1R CRE-bla CHO-K1 cells, read-out: EC20 GLP-1(9-36) PAM EC50. In short, it runs like this:
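GLP-1R CRE-bla CHO-K1 cells treated 30 min at 37 °C with 12-point compound dose response plus fixed EC20 GLP-1(9-36), with IBMX, in HBSS/HEPES/0.1% BSA pH 7.4. Total cAMP measured by luminescent detection against standard curve; EC50 and Emax from non-linear regression.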

[1] abbreviates: compound dose response with fixed concentration of GLP-1(9-36).
Where [2] appears, read: dose response of compound in presence of fixed concentration of GLP-1(9-36).

T1 sequence (P43220 24-463): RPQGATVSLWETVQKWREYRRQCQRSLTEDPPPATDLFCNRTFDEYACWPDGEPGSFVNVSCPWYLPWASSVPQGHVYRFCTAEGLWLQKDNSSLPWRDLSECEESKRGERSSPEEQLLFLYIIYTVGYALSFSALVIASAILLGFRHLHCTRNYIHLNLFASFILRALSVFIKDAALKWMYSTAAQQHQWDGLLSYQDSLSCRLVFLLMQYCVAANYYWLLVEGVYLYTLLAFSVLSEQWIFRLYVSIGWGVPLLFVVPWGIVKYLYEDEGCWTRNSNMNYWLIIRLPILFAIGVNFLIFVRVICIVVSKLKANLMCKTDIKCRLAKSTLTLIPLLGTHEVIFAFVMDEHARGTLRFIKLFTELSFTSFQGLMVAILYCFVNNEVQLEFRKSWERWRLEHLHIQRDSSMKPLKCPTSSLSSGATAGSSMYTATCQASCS
T1 sequence (P01275 100-127 partner limits assumed): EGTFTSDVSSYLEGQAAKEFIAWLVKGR

`Cc1ccc(-c2ccc(-c3cnc(-c4ccc(C[C@H](NC(=O)c5ccc(C(C)(C)C)s5)C(=O)N[C@H](C)C(=O)O)cc4)nc3)cc2)cc1` [Compound 1283]: the half-maximal effective concentration (EC50) under setting [1] is < 0.8 µM.
As for `CC[C@H]1CC[C@H](c2ccc(-c3cnc(-c4ccc(C[C@H](NC(=O)c5cnc(C(C)(C)C)nc5)C(=O)N5CC(C(=O)O)C5)cc4)nc3)cc2)CC1` [Compound 1164], the EC50 under setting [2] is < 0.8 µM.
In the case of `CCC[C@H]1CC[C@H](C2CCN(c3cnc(-c4ccc(C[C@H](NC(=O)c5ccc(C(C)(C)C)s5)C(=O)NC(CN(C)C)C(=O)O)cc4)nc3)CC2)CC1` (stereo partly shown) [Compound 1459], the EC50 under setting [1] is < 0.8 µM.
With `CCCCCCCOc1ccc(-c2cnc(-c3ccc(C[C@H](NC(=O)c4ccc(C(C)(C)C)cc4)C(=O)NC(C(=O)O)c4ccc(C(F)(F)F)cc4)cc3)nc2)cc1` (stereo partly shown) [Compound 453], the EC50 under setting [2] was 0.8 to 2.5 µM.
Regarding `CCCCCCCOc1ccc(-c2cnc(-c3ccc(C[C@H](NC(=O)c4ccc(CC(C)C)cc4)C(=O)N[C@H](C)C(=O)O)cc3)nc2)cc1` [Compound 823], under setting [2], the EC50 fell in the range of 0.8 to 2.5 µM.
On to `CCCCCCCOc1ccc(-c2cnc(-c3ccc(C[C@H](NC(=O)c4ccc(C(C)(C)C)s4)C(=O)NS(=O)(=O)CC(=O)OC)cc3)nc2)cc1` [Compound 422, methyl (S)-2-(N-(2-(5-(tert-butyl)thiophene-2-carboxamido)-3-(4-(5-(4-(heptyloxy)phenyl)pyrimidin-2-yl)phenyl)propanoyl)sulfamoyl)acetate], for which the EC50 under setting [2] was < 0.8 µM.
As for `CCCCCCCOc1ccc(-c2cnc(-c3ccc(C[C@H](NC(=O)c4ccc(C(C)(C)C)cc4)C(=O)NCC(O)C(=O)O)cc3)nc2)cc1` (stereo partly shown) [Compound 554], the half-maximal effective concentration (EC50) under setting [2] was < 0.8 µM.
For the compound `CC(C)(C)c1ccc(C(=O)N[C@@H](Cc2ccc(-c3ncc(-c4nc(-c5ccc(Cl)cc5)no4)cn3)cc2)C(=O)NCCC(=O)O)cc1` [Compound 751], the EC50 under setting [2] was 2.5 to 5 µM.
Regarding `CC[C@H]1CC[C@H](c2ccc(-c3cnc(-c4ccc(C[C@H](NC(=O)c5ccc(S(C)(=O)=O)s5)C(=O)N5CC(C(=O)O)C5)cc4)nc3)cc2)CC1` [Compound 1278], the EC50 under setting [1] is < 0.8 µM.
`CCCCCCCOc1ccc(-c2cnc(-c3ccc(C[C@H](NC(=O)c4ccc(CC(C)C)s4)C(=O)N4CCC[C@H]4C(=O)O)cc3)nc2)cc1` [Compound 1080]: under setting [2], the EC50 fell in the range of 0.8 to 2.5 µM.
Still for that read-out and setting: in the case of `CCCCCCCOc1ccc(-c2cnc(-c3ccc(C[C@H](NC(=O)c4ccc(C(C)(C)C)s4)C(=O)NC(Cc4ccc(Cl)cc4)C(=O)O)cc3)nc2)cc1` (stereo partly shown) [Compound 615] it was 5 to 10 µM.
Take `C[C@@H](NC(=O)[C@H](Cc1ccc(-c2ncc(/C=C/c3ccc(F)cc3)cn2)cc1)NC(=O)c1ccc(C(C)(C)C)s1)C(=O)O` [Compound 1249]: under setting [1], the EC50 was 2.5 to 5 µM.
On to `CCCCCCCCOc1ccc(-c2cnc(-c3ccc(C[C@H](NC(=O)c4ccc(C(C)(C)C)s4)C(=O)N4CC(C(=O)O)C4)cc3)nc2)cc1` [Compound 778], for which the half-maximal effective concentration (EC50) under setting [2] is < 0.8 µM.
In the case of `CCCCCCCOc1ccc(-c2cnc(-c3ccc(C[C@H](NC(=O)c4ccc(C(C)(C)C)cc4)C(=O)N[C@@H](CC(=O)O)C(=O)NC)cc3)nc2)cc1` [Compound 580], the EC50 under setting [2] was < 0.8 µM.
Regarding `C[C@@H](NC(=O)[C@H](Cc1ccc(-c2ncc(-c3ccc([C@H]4CC[C@@H](C(C)(C)C)CC4)cc3)cn2)cc1)NC(=O)c1ccc(C(C)(C)C)s1)C(=O)O` [Compound 1144], the EC50 under setting [2] lay within 0.8 to 2.5 µM.
Turning to `C[C@@H](NC(=O)[C@H](Cc1ccc(-c2ncc(-c3ccc(OCC(C)(C)C)cc3)cn2)cc1)NC(=O)c1ccc(C(C)(C)C)s1)C(=O)O` [Compound 739], under setting [2], the EC50 is < 0.8 µM.
As to `CCCOc1ccc(-c2cnc(-c3ccc(C[C@H](NC(=O)c4ccc(C(C)(C)C)cc4)C(=O)N[C@H](C)C(=O)O)cc3)nc2)cc1` [Compound 722], under setting [2], the EC50 is 0.8 to 2.5 µM.
Turning to `CCCCCCCOc1ccc(-c2cnc(-c3ccc(C[C@H](NC(=O)c4ccc(C(C)(C)C)cc4)C(=O)NC(C(=O)O)c4cccc(OC)c4)cc3)nc2)cc1` (stereo partly shown) [Compound 566], the EC50 under setting [2] is < 0.8 µM.
Consider `CC(C)(C)c1ccc(C(=O)N[C@@H](Cc2ccc(-c3ncc(-c4ccc(OCCC5CCCC5)cc4)cn3)cc2)C(=O)NC(C(=O)O)C(O)c2ccccc2)s1` (stereo partly shown) [Compound 939], for which the EC50 under setting [2] lay within 2.5 to 5 µM.
`C[C@@H](NC(=O)[C@H](Cc1ccc(-c2ncc(-c3ccc(N4CCOCC4)cc3)cn2)cc1)NC(=O)c1ccc(C(C)(C)C)s1)C(=O)O` [Compound 1307]: the EC50 under setting [1] fell in the range of 0.8 to 2.5 µM.
On to `CC(C)(C)c1ccc(C(=O)N[C@@H](Cc2ccc(-c3ncc(-c4ccc(OCCN5CCCCC5)cc4)cn3)cc2)C(=O)O)s1` [Compound 1353], for which the EC50 under setting [1] is 5 to 10 µM.
Regarding `CCCCCCCOc1ccc(-c2cnc(-c3ccc(C[C@@H](NC(=O)c4ccc(C(C)(C)C)cc4)C(=O)NCCC(=O)O)cc3)nc2)cc1` [Compound 433], under setting [2], the EC50 lay in the range of 2.5 to 5 µM.
For the compound `CC[C@H]1CC[C@H](c2ccc(-c3cnc(-c4ccc(C[C@H](NC(=O)c5ccc(C6(C)CC6)cc5)C(=O)N5CC(C(=O)O)C5)cc4)nc3)cc2)CC1` [Compound 1159], the EC50 under setting [2] was < 0.8 µM.
As to `CCCCCCCOc1ccc(-c2cnc(-c3ccc(C[C@H](NC(=O)c4ccc(C(C)(C)C)cc4)C(=O)N[C@@H](CC(=O)NS(C)(=O)=O)C(=O)O)cc3)nc2)cc1` [Compound 511], the EC50 under setting [2] was 0.8 to 2.5 µM.
With `CCCCCCCOc1ccc(-c2cnc(-c3ccc(C[C@H](NC(=O)c4ccc(C(C)(C)C)s4)C(=O)N4CC(CCN)C4)cc3)nc2)cc1` [Compound 989], the EC50 under setting [2] is 0.8 to 2.5 µM.
On to `CCCCCCCOc1ccc(-c2cnc(-c3ccc(C[C@H](NC(=O)c4ccc(C(C)(C)C)cc4)C(=O)NC(CC(=O)O)c4cccnc4)cc3)nc2)cc1` (stereo partly shown) [Compound 571], for which the EC50 under setting [2] lay within 0.8 to 2.5 µM.
With `CCCc1ccc(-c2ccc(-c3cnc(-c4ccc(C[C@H](NC(=O)c5ccc(S(C)(=O)=O)cc5)C(=O)N5CC(C(=O)O)C5)cc4)nc3)c(F)c2)cc1` [Compound 1404], the EC50 under setting [1] is < 0.8 µM.
In the case of `C[C@@H](NC(=O)[C@H](Cc1ccc(-c2ncc(-c3ccc(-c4ccc(C(F)(F)F)cc4F)cc3)cn2)cc1)NC(=O)c1ccc(C(C)(C)C)s1)C(=O)O` [Compound 1147], the EC50 under setting [2] was < 0.8 µM.
For `CC(C)CCCOc1ccc(-c2cnc(-c3ccc(C[C@H](NC(=O)c4ccc(CC(C)C)s4)C(=O)N4CC(C(=O)O)C4)cc3)nc2)cc1` [Compound 1234], under setting [1], the EC50 lay in the range of 2.5 to 5 µM.
In the case of `CCCCCCCOc1ccc(-c2cnc(-c3ccc(C[C@H](NC(=O)c4ccc(C(C)(C)C)s4)C(=O)NCCN(C)C)cc3)nc2)cc1` [Compound 385], the EC50 under setting [2] fell in the range of 5 to 10 µM.
As to `CC[C@H]1CC[C@H](c2ccc(-c3cnc(-c4ccc(C[C@H](NC(=O)c5ccc(C(C)C)s5)C(=O)N5CC(C(=O)O)C5)cc4)nc3)cc2)CC1` [Compound 1167], under setting [2], the EC50 is < 0.8 µM.
Same read-out and setting: in the case of `CCCc1ccc(C(=O)N[C@@H](Cc2ccc(-c3ncc(-c4ccc([C@H]5CC[C@H](CC)CC5)cc4)cn3)cc2)C(=O)N2CC(C(=O)O)C2)cc1` [Compound 1156] it was < 0.8 µM.
Regarding `CCCCCCCOc1ccc(-c2cnc(-c3ccc(CC(NC(=O)c4ccc(C(C)(C)C)s4)C(=O)N[C@@H](CCCCN)C(=O)O)cc3)nc2)cc1` (stereo partly shown) [Compound 427], the EC50 under setting [2] lay within 0.8 to 2.5 µM.
Regarding `CC(C)(C)c1ccc(-c2ccc(-c3cnc(-c4ccc(C[C@H](NC(=O)c5ccc(C(C)(C)C)s5)C(=O)O)cc4)nc3)cc2)cc1` [Compound 1348], the EC50 under setting [1] fell in the range of 2.5 to 5 µM.
In the case of `CC[C@H]1CC[C@H](c2ccc(-c3cnc(-c4ccc(C[C@H](NC(=O)c5ccc(C6CC6)s5)C(=O)N5CC(C(=O)O)C5)cc4)nc3)cc2)CC1` [Compound 1154], the EC50 under setting [2] was < 0.8 µM.
Consider `CCC[C@H]1CC[C@H](C2CCN(c3cnc(-c4ccc(C[C@H](NC(=O)c5ccc(CC)cc5)C(=O)N5CC(C(=O)O)C5)cc4)nc3)CC2)CC1` [Compound 1529], for which the EC50 under setting [1] was < 0.8 µM.
Take `C[C@@H](NC(=O)[C@H](Cc1ccc(-c2ncc(-c3ccc(-c4ccccc4F)cc3)cn2)cc1)NC(=O)c1ccc(C(C)(C)C)s1)C(=O)O` [Compound 1133]: the EC50 under setting [2] is < 0.8 µM.
With `CCCCCCCOc1ccc(-c2cnc(-c3ccc(C[C@H](NC(=O)c4ccc(C(C)(C)C)cc4)C(=O)N4CCC4C(=O)O)cc3)nc2)cc1` (stereo partly shown) [Compound 565], under setting [2], the EC50 was 0.8 to 2.5 µM.
Take `CCC[C@H]1CC[C@H](C2CCN(c3cnc(-c4ccc(C[C@H](NC(=O)c5cnc(C(C)(C)C)nc5)C(=O)N5CC(C(=O)O)C5)cc4)nc3)CC2)CC1` [Compound 1514]: under setting [1], the EC50 is < 0.8 µM.
Take `CCCCCCCOc1ccc(-c2cnc(-c3ccc(C[C@H](NC(=O)c4ccc(C(C)(C)C)s4)C(=O)NC[C@H]4CCNC4)cc3)nc2)cc1` [Compound 438]: under setting [2], the EC50 is 5 to 10 µM.
As to `CCCCCCCCOc1ccc(-c2cnc(-c3ccc(C[C@H](NC(=O)c4ccc(C(C)(C)C)cc4)C(=O)NCCC(=O)O)cc3)nc2)cc1` [Compound 712], the EC50 under setting [2] was 0.8 to 2.5 µM.
For `COc1ccc(-c2ccc(-c3cnc(-c4ccc(C[C@H](NC(=O)c5ccc(C(C)(C)C)s5)C(=O)N[C@H](C)C(=O)O)cc4)nc3)cc2)cc1` [Compound 1002], under setting [2], the EC50 was 0.8 to 2.5 µM.
With `CCCCOc1ccc(-c2cnc(-c3ccc(C[C@H](NC(=O)c4ccc(C(C)(C)C)s4)C(=O)N[C@H](C)C(=O)O)cc3)nc2)cc1` [Compound 733], the EC50 under setting [2] fell in the range of 0.8 to 2.5 µM.
Turning to `CCCCCCCOc1ccc(-c2cnc(-c3ccc(C[C@H](NC(=O)c4ccc(OCC(C)C)cc4)C(=O)N[C@H](C)C(=O)O)cc3)nc2)cc1` [Compound 829], the EC50 under setting [2] was in the range of 5 to 10 µM.
In the case of `CC(C)(C)c1ccc(C(=O)N[C@@H](Cc2ccc(-c3ncc(-c4ccc(C(F)(F)F)cc4)cn3)cc2)C(=O)N2CC(C(=O)O)C2)s1` [Compound 788], the EC50 under setting [2] is 5 to 10 µM.
Take `CCC[C@H]1CC[C@H](C2CCN(c3cnc(-c4ccc(C[C@H](NC(=O)c5ccc(C(C)(C)C)s5)C(=O)N5CCC[C@H]5C(=O)O)cc4)nc3)CC2)CC1` [Compound 1419]: the EC50 under setting [1] was < 0.8 µM.
